Data taken from ChEMBL document CHEMBL5257037, “Side Chain Cyclized Aromatic Amino Acids: Great Tools as Local Constraints in Peptide and Peptidomimetic Design” (J Med Chem, 2016).

How the values were obtained:
[1] = molecular target: T1, Angiotensin-converting enzyme (Homo sapiens, UniProt P12821); assay: Inhibition of angiotensin-converting enzyme (unknown origin)
[2] = Inhibition of farnesyltransferase (unknown origin); parameters: species or system Homo sapiens
B2 bradykinin receptor [3] = molecular target: T2, B2 bradykinin receptor (Homo sapiens, UniProt P30411); assay: Antagonist potency at B2 bradykinin receptor (unknown origin); details: read-out: pA2 (converted)
T2 sequence (P30411 whole entry): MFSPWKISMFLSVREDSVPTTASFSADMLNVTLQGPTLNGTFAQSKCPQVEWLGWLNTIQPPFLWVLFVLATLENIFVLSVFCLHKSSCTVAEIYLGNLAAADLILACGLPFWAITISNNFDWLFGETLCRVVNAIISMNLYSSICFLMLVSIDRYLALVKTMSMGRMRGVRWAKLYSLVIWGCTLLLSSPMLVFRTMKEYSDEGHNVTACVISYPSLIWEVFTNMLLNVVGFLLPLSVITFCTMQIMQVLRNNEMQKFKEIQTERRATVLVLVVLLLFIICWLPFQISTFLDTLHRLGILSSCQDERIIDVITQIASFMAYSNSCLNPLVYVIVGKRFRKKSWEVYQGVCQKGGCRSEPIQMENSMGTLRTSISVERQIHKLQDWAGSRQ

B2 bradykinin receptor [4] = molecular target: T2, B2 bradykinin receptor; assay: Binding affinity to B2 bradykinin receptor (unknown origin)
Neprilysin = Neprilysin (Homo sapiens, UniProt P08473); assay: Binding affinity to neutral endopeptidase (unknown origin) assessed as inhibition constant
[5] = molecular target: T1, Angiotensin-converting enzyme; assay: Binding affinity to angiotensin-converting enzyme (unknown origin) assessed as inhibition constant
Substance-P receptor = Substance-P receptor (Homo sapiens, UniProt P25103); assay: Inhibition of [3H]SP binding to human neurokinin receptor 1 expressed in CHO cells; format: cell-based

In the case of `CCOC(=O)[C@H](CCc1ccccc1)N[C@@H](C)C(=O)N1[C@H](C(=O)O)C[C@@H]2CCC[C@@H]21`, the IC50 [1] is reported as 4.2 nM.

Compound `CSCC[C@H](NC(=O)[C@@H]1Cc2ccccc2CN1C(=O)[C@@H](NC[C@@H](N)CS)C(C)C)C(=O)O` has an IC50 [2] of 0.6 nM.

With `CSCC[C@H](NC(=O)[C@H]1Cc2ccccc2CN1C(=O)[C@@H]1CCCN1C(=O)[C@H](CS)NC(=O)[C@@H](N)CCCCN)C(=O)O` the IC50 [2] was 100000 nM.

Work on `N=C(N)NCCC[C@@H](N)C(=O)N[C@@H](CCCNC(=N)N)C(=O)N1CCC[C@H]1C(=O)N1C[C@H](O)C[C@H]1C(=O)NCC(=O)N[C@@H](Cc1cccs1)C(=O)N[C@@H](CO)C(=O)N[C@@H]1Cc2ccccc2CN(CC(=O)N[C@@H](CCCNC(=N)N)C(=O)O)C1=O` yielded a Kb (B2 bradykinin receptor [3]) of 2510 nM and a Ki (B2 bradykinin receptor [4]; read-out: pKi (converted)) of 316 nM.

Compound `CC(C)C[C@@H](C(=O)O)N1CCO[C@@H](c2ccccc2)[C@H](NC(=O)[C@@H](S)Cc2ccccc2)C1=O` has a Ki (Neprilysin) of 330 nM and a Ki [5] of 50000 nM.

In the case of `CC(=O)NC1(C(=O)OCc2cc(C(F)(F)F)cc(C(F)(F)F)c2)CCc2[nH]c3ccccc3c2C1` (centres undefined), the Ki (Substance-P receptor) is reported as 765 nM.

`N=C(N)NCCC[C@@H](N)C(=O)N[C@@H](CCCNC(=N)N)C(=O)N1CCC[C@H]1C(=O)N1C[C@H](O)C[C@H]1C(=O)NCC(=O)N[C@@H](Cc1cccs1)C(=O)N[C@@H](CO)C(=O)N1CCC[C@]12Cc1ccccc1CN(CC(=O)N[C@@H](CCCNC(=N)N)C(=O)O)C2=O` showed a Kb (B2 bradykinin receptor [3]) of 3160 nM and a Ki (B2 bradykinin receptor [4]; read-out: pKi (converted)) of 25.1 nM.

Compound `C[C@H](N[C@@H](CCc1ccccc1)C(=O)O)C(=O)N1Cc2ccccc2[C@H]1C(=O)O` has an IC50 [1] of 44 nM.

For `N=C(N)NCCC[C@@H](N)C(=O)N[C@@H](CCCNC(=N)N)C(=O)N1CCC[C@H]1C(=O)N1C[C@H](O)C[C@H]1C(=O)NCC(=O)N[C@@H](Cc1cccs1)C(=O)N[C@@H](CO)C(=O)N1CCC[C@@]12Cc1ccccc1CN(CC(=O)N[C@@H](CCCNC(=N)N)C(=O)O)C2=O`, the Kb (B2 bradykinin receptor [3]) was 2000 nM and the Ki (B2 bradykinin receptor [4]; read-out: pKi (converted)) was 3.16 nM.

Compound `CSCC[C@H](NC(=O)[C@@H]1Cc2ccccc2CN1C[C@@H](NC(=O)[C@@H](N)CS)C(C)C)C(=O)O` has an IC50 [2] of 0.37 nM.

For `N=C(N)NCCC[C@@H](N)C(=O)N[C@@H](CCCNC(=N)N)C(=O)N1CCC[C@H]1C(=O)N1C[C@H](O)C[C@H]1C(=O)NCC(=O)N[C@@H](Cc1cccs1)C(=O)N[C@@H](CO)C(=O)N1Cc2ccccc2C[C@@H]1C(=O)N1Cc2ccccc2C[C@@H]1C(=O)N[C@@H](CCCNC(=N)N)C(=O)O`, the Kb (B2 bradykinin receptor [3]) was 2510 nM and the Ki (B2 bradykinin receptor [4]; read-out: Ki) was 571 nM.

For `CC(C)C[C@H](NC(=O)CNC(=O)OCc1ccccc1)C(=O)NC1(C(=O)OCc2cc(C(F)(F)F)cc(C(F)(F)F)c2)CNc2[nH]c3ccccc3c2C1` (some centres undefined), the Ki (Substance-P receptor) was 200 nM.

`CC(C)C[C@@H](C(=O)O)N1Cc2ccccc2C[C@H](NC(=O)[C@@H](S)Cc2ccccc2)C1=O` showed a Ki (Neprilysin) of 0.4 nM.

Work on `N=C(N)NCCC[C@@H](N)C(=O)N[C@@H](CCCNC(=N)N)C(=O)N1CCC[C@H]1C(=O)N1C[C@H](O)C[C@H]1C(=O)NCC(=O)N[C@@H](Cc1cccs1)C(=O)N[C@@H](CO)C(=O)N[C@H]1Cc2ccccc2CN(CC(=O)N[C@@H](CCCNC(=N)N)C(=O)O)C1=O` yielded a Ki (B2 bradykinin receptor [4]; read-out: pKi (converted)) of 200 nM.

In the case of `O=C(O)[C@H](CCc1ccccc1)N[C@H]1Cc2ccccc2[C@H]2CCC[C@@H](C(=O)O)N2C1=O`, the Ki (Neprilysin) is reported as > 10 nM and the Ki [5] is reported as 0.004 nM.

`N=C(N)NCCC[C@@H](N)C(=O)N[C@@H](CCCNC(=N)N)C(=O)N1CCC[C@H]1C(=O)N1C[C@H](O)C[C@H]1C(=O)NCC(=O)N[C@@H](Cc1cccs1)C(=O)N[C@H]1CSSC[C@@H](C(=O)N[C@@H](CCCNC(=N)N)C(=O)O)NC(=O)[C@H](Cc2ccccc2)NC(=O)[C@H](Cc2ccccc2)NC1=O` showed a Kb (B2 bradykinin receptor [3]) of 3980 nM and a Ki (B2 bradykinin receptor [4]; read-out: Ki) of 876 nM.

Work on `N=C(N)NCCCC(NC(=O)[C@@H]1C[C@@H]2CCC[C@@H]2N1C(=O)[C@H]1Cc2ccccc2CN1C(=O)[C@H](CO)NC(=O)[C@H](Cc1cccs1)NC(=O)CNC(=O)[C@@H]1C[C@@H](O)CN1C(=O)[C@@H]1CCCN1C(=O)[C@H](CCCNC(=N)N)NC(=O)[C@H](N)CCCNC(=N)N)C(=O)O` (some centres undefined) yielded a Kb (B2 bradykinin receptor [3]) of 0.398 nM and a Ki (B2 bradykinin receptor [4]; read-out: Ki) of 0.18 nM.

Work on `CSCC[C@H](NC(=O)[C@@H]1Cc2ccccc2CN1C(=O)[C@@H](NC(=O)[C@H](CS)NC(=O)[C@@H](N)CCCCN)C(C)C)C(=O)O` yielded an IC50 [2] of 20 nM.

Compound `CC(C)C[C@H](NC(=O)CNC(=O)OCc1ccccc1)C(=O)N1Cc2[nH]c3ccccc3c2C[C@H]1C(=O)OCc1cc(C(F)(F)F)cc(C(F)(F)F)c1` has a Ki (Substance-P receptor) of 63 nM.

`C[C@H](C(=O)N[C@@H](CCCNC(=N)N)C(=O)O)N1Cc2ccccc2C[C@@H](NC(=O)[C@H](CO)NC(=O)[C@H](Cc2ccccc2)NC(=O)CNC(=O)[C@@H]2CCCN2C(=O)[C@@H]2CCCN2C(=O)[C@@H](N)CCCNC(=N)N)C1=O` showed a Ki (B2 bradykinin receptor [4]; read-out: pKi (converted)) of 501 nM.

`O=C(O)CN1Cc2ccccc2C[C@H](N[C@@H](CCc2ccccc2)C(=O)O)C1=O` gave a Ki [5] of 10 nM.
